A word on the pIC50: it is the IC50 on a negative log10 scale, so that one unit is a factor of ten.

pIC50: −log10 of the molar value. Where only a bound is given, the exact number is not on record here.

One assay concerns the target T1, Recombinant human CD38 (Homo sapiens, UniProt P28907).
T1 sequence (P28907 1-300): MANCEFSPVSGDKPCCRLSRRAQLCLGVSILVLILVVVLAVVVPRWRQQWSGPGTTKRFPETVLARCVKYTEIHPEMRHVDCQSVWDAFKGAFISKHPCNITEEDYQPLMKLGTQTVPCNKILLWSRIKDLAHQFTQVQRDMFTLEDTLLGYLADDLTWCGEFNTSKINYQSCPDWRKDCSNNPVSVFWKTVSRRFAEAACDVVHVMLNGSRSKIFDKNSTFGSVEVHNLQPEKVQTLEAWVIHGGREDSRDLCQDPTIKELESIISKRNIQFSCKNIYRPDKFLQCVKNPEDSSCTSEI
Briefly: Human CD38 hydrolase assay (fluorescence-based, ε-NAD substrate). It counts as biochemical. Particulars: recombinant human CD38 0.8 nM, 4 μM ε-NAD, 30 min preincubation at 25° C. As for the experimental part:
The ability of test compounds to inhibit human CD38 hydrolase activity was measured in a fluorescence-based assay using non-physiological NAD^+ substrate analogue 1,N^6-etheno NAD^+ (ε-NAD). Recombinant human CD38 (0.8 nM) was preincubated with test compounds in 384-well black microplates for 30 min at 25° C. in PBS (—Ca^2+/Mg^2+) containing 0.005% BSA (pH 7.4). CD38 hydrolase activity was initiated by addition of 4 μM ε-NAD, which yields the fluorescent product 1,N^6-etheno ADP-ribose. Formation of fluorescent product was followed using ClarioStar Plus (BMG) microplate reader by reading fluorescence (excitation λ=300 nm; emission λ=410 nm) at two time points, one immediately after substrate addition (t=0) and one at 10 min (t=10). Data was analysed by subtracting the values detected at t=0 from t=10 to correct for variation in baseline fluorescence. Fluorescence values were converted to percent inhibition using the average of high signal (CD38 and ε-NAD) and low signal (CD38 and ε-NAD in the presence of a tool CD38 inhibitor) control wells. IC50 values were determined from a 10-point, half log concentration response curve with a four-parameter logistic equation.

The next assay deals with T2, Recombinant mouse CD38 (Mus musculus, UniProt P56528).
T2 sequence (P56528 1-304): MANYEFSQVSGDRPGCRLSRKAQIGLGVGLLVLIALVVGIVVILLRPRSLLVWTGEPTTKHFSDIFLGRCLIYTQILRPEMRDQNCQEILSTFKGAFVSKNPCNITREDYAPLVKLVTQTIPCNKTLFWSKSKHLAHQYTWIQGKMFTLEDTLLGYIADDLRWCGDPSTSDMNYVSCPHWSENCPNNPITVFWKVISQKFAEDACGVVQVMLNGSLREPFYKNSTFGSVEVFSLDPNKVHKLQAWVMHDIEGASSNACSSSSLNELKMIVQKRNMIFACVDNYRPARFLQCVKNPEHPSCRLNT
Briefly: Mouse CD38 hydrolase assay (fluorescence-based, ε-NAD substrate). It counts as biochemical. Particulars: recombinant mouse CD38 0.4 nM, 12 μM ε-NAD, 30 min preincubation at 25° C. How it is done:
The ability of test compounds to inhibit mouse CD38 hydrolase activity was measured in a fluorescence-based assay using non-physiological NAD^+ substrate analogue 1,N^6-etheno NAD^+ (&-NAD). Recombinant mouse CD38 (0.4 nM) was preincubated with test compounds in 384-well black microplates for 30 min at 25° C. in PBS (—Ca^2+/Mg^2+) containing 0.005% BSA (pH 7.4). CD38 hydrolase activity was initiated by addition of 12 μM ε-NAD, which yields the fluorescent product 1,N^6-etheno ADP-ribose. Formation of fluorescent product was followed using ClarioStar Plus (BMG) microplate reader by reading fluorescence (excitation λ=300 nm; emission λ=410 nm) at two time points, one immediately after substrate addition (t=0) and one at 6 min (t=6).
Data was analysed by subtracting the values detected at t=0 from t=6 to correct for variation in baseline fluorescence. Fluorescence values were converted to percent inhibition using the average of high signal (CD38 and ε-NAD) and low signal (CD38 and ε-NAD in the presence of a tool CD38 inhibitor) control wells. IC50 values were determined from a 10-point, halflog concentration response curve with a four-parameter logistic equation.

Take `CC(C)(N[C@H]1CC[C@H](NC(=O)c2cn3ncnc3c(-n3ccnc3)n2)CC1)C(F)(F)F` [Example 53, 8-(1H-imidazol-1-yl)-N-((1r,4r)-4-((1,1,1-trifluoro-2-methylpropan-2-yl)amino)cyclohexyl)-[1,2,4]triazolo[1,5-a]pyrazine-6-carboxamide]: the pIC50 on Recombinant human CD38 was ≥ 6.00; on Recombinant mouse CD38, ≥ 7.40. For `O=C(NC1CCC2(CC1)CN(CC(F)(F)F)C2)c1nc(-n2ccnc2)nn2cccc12` [Example 8, 2-(1H-imidazol-1-yl)-N-(2-(2,2,2-trifluoroethyl)-2-azaspiro[3.5]nonan-7-yl)pyrrolo[2,1-f][1,2,4]triazine-4-carboxamide] the same measures were ≥ 7.40 and ≥ 7.40. As for `O=C(N[C@H]1CC[C@H](NCC(F)F)CC1)c1cn2nccc2c(-n2ccnc2)n1` [Example 37, N-((1r,4r)-4-((2,2-difluoroethyl)amino)cyclohexyl)-4-(1H-imidazol-1-yl)pyrazolo[1,5-a]pyrazine-6-carboxamide], the values for the pIC50 at Recombinant human CD38 and at Recombinant mouse CD38 were ≥ 7.00 and ≥ 7.40, respectively. `O=C(N[C@H]1CC[C@H](N2CC[C@H](F)C2)CC1)c1cn2ccnc2c(-n2ccnc2)n1` [Example 40, N-((1S,4r)-4-((S)-3-fluoropyrrolidin-1-yl)cyclohexyl)-8-(1H-imidazol-1-yl) imidazo[1,2-a]pyrazine-6-carboxamide]: the figures for the pIC50 on Recombinant human CD38 and on Recombinant mouse CD38 were ≥ 6.00 and ≥ 7.40, respectively. Take `O=C(N[C@H]1CC[C@H](N2CC[C@@H](F)C2)CC1)c1cn2nccc2c(-n2ccnc2)n1` [Example 35, N-((1R,4r)-4-((R)-3-fluoropyrrolidin-1-yl)cyclohexyl)-4-(1H-imidazol-1-yl)pyrazolo[1,5-a]pyrazine-6-carboxamide]: the pIC50 is ≥ 7.00 at Recombinant human CD38 and ≥ 7.40 on Recombinant mouse CD38. Regarding `O=C(N[C@H]1CC[C@H](N2CCS(=O)(=O)CC2)CC1)c1cn2ncnc2c(-n2ccnc2)n1` [Example 51, N-((1r,4r)-4-(1,1-dioxidothiomorpholino)cyclohexyl)-8-(1H-imidazol-1-yl)-[1,2,4]triazolo[1,5-a]pyrazine-6-carboxamide], the pIC50 on Recombinant human CD38 was ≥ 6.00; at Recombinant mouse CD38 it was ≥ 7.40.

For `O=C(N[C@H]1CC[C@H](NCC(F)(F)F)CC1)c1cc2cccnc2c(-n2ccnc2)n1` [Example 6, 8-(1H-imidazol-1-yl)-N-((1r,4r)-4-((2,2,2-trifluoroethyl)amino)cyclohexyl)-1,7-naphthyridine-6-carboxamide], at Recombinant human CD38, the negative logarithm of the IC50 (pIC50) was ≥ 5.00. Regarding `O=C(N[C@H]1CC[C@H](NCC(F)F)CC1)c1nc(-n2ccnc2)nn2cccc12` [Example 31, N-((1r,4r)-4-((2,2-difluoroethyl)amino)cyclohexyl)-2-(1H-imidazol-1-yl)pyrrolo[2,1-f][1,2,4]triazine-4-carboxamide], the pIC50 at Recombinant human CD38 and at Recombinant mouse CD38 was ≥ 7.40 each time.

Take “N-((1r,4r)-4-((2,2-difluoroethyl)amino)cyclohexyl)-2-(1H-imidazol-1-yl)pyrido[2,3-d]pyrimidine-4-carboxamide [Example 33]”: the pIC50 at Recombinant human CD38 and on Recombinant mouse CD38 was ≥ 7.40 throughout. Turning to `CO[C@@H]1CCN([C@H]2CC[C@@H](NC(=O)c3cn4ncnc4c(-n4ccnc4)n3)CC2)C1` [Example 54, 8-(1H-imidazol-1-yl)-N-((1S,4s)-4-((R)-3-methoxypyrrolidin-1-yl)cyclohexyl)-[1,2,4]triazolo[1,5-a]pyrazine-6-carboxamide], the values for the pIC50 on Recombinant human CD38 and on Recombinant mouse CD38 were ≥ 6.00 and ≥ 7.40, respectively.

`O=C(N[C@H]1CC[C@H](N2CC[C@@H](F)C2)CC1)c1cn2ncnc2c(-n2ccnc2)n1` [Example 26, N-((1R,4r)-4-((R)-3-fluoropyrrolidin-1-yl)cyclohexyl)-8-(1H-imidazol-1-yl)-[1,2,4]triazolo[1,5-a]pyrazine-6-carboxamide]: the pIC50 on Recombinant human CD38 is ≥ 7.00; on Recombinant mouse CD38, ≥ 7.40. For `O=C(N[C@H]1CC[C@@H](N2CCSCC2)CC1)c1cn2ncnc2c(-n2ccnc2)n1` [Example 55, 8-(1H-imidazol-1-yl)-N-((1s,4s)-4-thiomorpholinocyclohexyl)-[1,2,4]triazolo[1,5-a]pyrazine-6-carboxamide], the negative-log IC50 (pIC50) on Recombinant human CD38 was ≥ 6.00; on Recombinant mouse CD38, ≥ 7.40.

For the molecule `O=C(N[C@H]1CC[C@H](NCC(F)(F)F)CC1)c1nc(-c2cncn2CCO)nn2cccc12` [Example 18, 2-(1-(2-hydroxyethyl)-1H-imidazol-5-yl)-N-((1r,4r)-4-((2,2,2-trifluoroethyl)amino)cyclohexyl)pyrrolo[2,1-f][1,2,4]triazine-4-carboxamide], the pIC50 on Recombinant human CD38 and at Recombinant mouse CD38 was ≥ 7.40 in each case. For `O=C(NC1CC2(CC(NCC(F)(F)F)C2)C1)c1nc(-n2ccnc2)nn2cccc12` (single isomer, unassigned) [Example 9, 2-(1H-imidazol-1-yl)-N-(6-((2,2,2-trifluoroethyl)amino)spiro[3.3]heptan-2-yl)pyrrolo[2,1-f][1,2,4]triazine-4-carboxamide], the negative-log IC50 (pIC50) at Recombinant human CD38 and at Recombinant mouse CD38 was ≥ 7.40 each time. Consider `CC(F)(F)CN[C@H]1CC[C@H](NC(=O)c2cn3ncnc3c(-n3ccnc3)n2)CC1` [Example 57, N-((1r,4r)-4-((2,2-difluoropropyl)amino)cyclohexyl)-8-(1H-imidazol-1-yl)-[1,2,4]triazolo[1,5-a]pyrazine-6-carboxamide], for which the pIC50 on Recombinant human CD38 is ≥ 6.00; at Recombinant mouse CD38, ≥ 7.40. In the same order, the values of `O=C(N[C@H]1CC[C@H](N2CC[C@H](F)C2)CC1)c1cn2ncnc2c(-n2ccnc2)n1` [Example 25, N-((1S,4r)-4-((S)-3-fluoropyrrolidin-1-yl)cyclohexyl)-8-(1H-imidazol-1-yl)-[1,2,4]triazolo[1,5-a]pyrazine-6-carboxamide] are ≥ 6.00 and ≥ 7.40.

For `O=C(N[C@H]1CC[C@H](N2CC[C@@H](F)C2)CC1)c1nc(-n2ccnc2)c2cccn2n1` [Example 28, N-((1R,4r)-4-((R)-3-fluoropyrrolidin-1-yl)cyclohexyl)-4-(1H-imidazol-1-yl)pyrrolo[2,1-f][1,2,4]triazine-2-carboxamide], the pIC50 on Recombinant human CD38 is ≥ 5.00; on Recombinant mouse CD38 it was ≥ 7.40. Turning to `O=C(N[C@H]1CC[C@H](N2CCOCC2)CC1)c1cn2ncnc2c(-n2ccnc2)n1` [Example 49, 8-(1H-imidazol-1-yl)-N-((1r,4r)-4-morpholinocyclohexyl)-[1,2,4]triazolo[1,5-a]pyrazine-6-carboxamide], the pIC50 on Recombinant human CD38 is ≥ 6.00. Take `O=C(NC1CCOCC1)c1nc(-n2ccnc2)cc2nccn12` [Example 1, 7-(1H-imidazol-1-yl)-N-(tetrahydro-2H-pyran-4-yl) imidazo[1,2-c]pyrimidine-5-carboxamide]: the pIC50 was ≥ 7.00 at Recombinant human CD38 and ≥ 7.40 on Recombinant mouse CD38. For the molecule `O=C(N[C@H]1CC[C@H](NCC(F)(F)F)CC1)c1cc2ncnn2c(-n2ccnc2)n1` [Example 60, 5-(1H-imidazol-1-yl)-N-((1r,4r)-4-((2,2,2-trifluoroethyl)amino)cyclohexyl)-[1,2,4]triazolo[1,5-c]pyrimidine-7-carboxamide], the pIC50 on Recombinant human CD38 is ≥ 6.00. Consider `O=C(N[C@H]1CC[C@H](N2CCCC2)CC1)c1nc(-n2ccnc2)nn2cccc12` [Example 43, 2-(1H-imidazol-1-yl)-N-((1r,4r)-4-(pyrrolidin-1-yl)cyclohexyl)pyrrolo[2,1-f][1,2,4]triazine-4-carboxamide], for which the pIC50 at Recombinant human CD38 is ≥ 7.40.

For `O=C(N[C@H]1CC[C@H](N2CCC(F)(F)C2)CC1)c1cn2nccc2c(-n2ccnc2)n1` [Example 34, N-((1r,4r)-4-(3,3-difluoropyrrolidin-1-yl)cyclohexyl)-4-(1H-imidazol-1-yl)pyrazolo[1,5-a]pyrazine-6-carboxamide], the pIC50 at Recombinant human CD38 is ≥ 6.00.

(Values after US20260224582A1, “Heterobicyclic amides as inhibitors of CD38” (Cerevance, Inc., priority 2022, published 2026).)
